Assay type in all cases: biochemical
The target of one experiment is JAK2 (Homo sapiens, UniProt O60674). Briefly: JAK kinase inhibition assay (EZ Reader, peptide substrate phosphorylation) - JAK2. The note with it: JAK2 kinase 1 nM; 8 concentration points, max 10 μM. The text has this: (§1) Assay for Identifying Inhibitory Effects of Compounds on JAK Kinases
(§2) Janus kinases (JAK), including JAK1, JAK2, JAK3 and Tyk2, transduce a cytokine-mediated signal through a JAK-STAT pathway. The kinases are 120-140 kDa in size and have 7 determined homology regions: JH1 to JH7. JH1 is an important region for enzymatic activity and has typical characteristics of tyrosine kinases. Phosphorylation of tyrosine leads to a change in the conformation of JAK protein, thereby promoting binding of substrate. The JAK-STAT system includes three main parts: receptors penetrating a cell membrane, Janus kinases binding to the receptors, and signal transducers and activators of transcription (STAT) for transmitting signals to a nucleus and DNA. When cytokines bind to receptors, JAK phosphorylates the receptors and attracts STAT proteins. The STAT proteins are also phosphorylated and combined with one another to form dimers. The dimers enter the nucleus and bind to DNA, thereby leading to gene transcription.
(§3) EZ Reader from PerkinElmer can be used to detect the phosphorylation of polypeptide substrates catalyzed by kinases. The device is based on microfluidic techniques, and can directly detect fluorescently labeled substrates and products. The separation step is achieved by controlling the pressure and electric field strength in the microfluidic chip. In kinase assays, a product conversion ratio is usually controlled to be 20-30%. A biological test is used to identify inhibitory effects of compounds on JAKs.
(§4) Compound powder was dissolved in DMSO, sealed and stored in a freezer under −20° C. The in-house compound Ref1 was used as a positive control for JAK1, JAK2 and Tyk2 tests, and Ref2 was used as a positive control for JAK3 tests.
(§5) S2.8. Assay buffer: 20 mM HEPES buffer, pH 7.4, 10 mM magnesium chloride, 0.01% bovine serum albumin BSA, 0.0005% Tween-20 and 1 mM dithiothreitol solution.
(§6) S2.9. Stop buffer: 180 mM HEPES buffer, 20 mM ethylenediaminetetraacetic acid and 0.2% coating reagent 3.
(§7) S2.10. Separation buffer: 100 mM HEPES buffer, 10 mM ethylenediaminetetraacetic acid, 0.0005% Tween 20, 0.1% coating reagent 3 and 1% dimethyl sulfoxide.
The compound was dissolved in dimethyl sulfoxide and diluted to 10 mM concentration, a certain volume of solution was taken and diluted to 0.6 mM concentration, 10 μL of the 0.6 mM dilution was added to a 384-well microplate, and then was diluted 3-fold with a total of 8 concentration points.
Positive control (HPE1): Ref1, final concentration: 10 μM […]
(§8) Negative control (ZPE): DMSO, final content: 1.6%
(§9) Compounds: maximum final concentration: 10 μM; 3-fold dilution, 8 concentration points and 2 duplicates.
(§10) S4.1. 250 nL of the compound was added to each well of the assay microplate by using ECHO, and centrifuged at 1000 rpm for 1 minute.
(§11) S4.2. 5 μL of the assay buffer was added and agitated for a few seconds to fully dissolve the compound.
(§12) S4.3. 5 μL of 3× substrate solution and 5 μL of 3× kinase solution were added and centrifuged at 800 rpm for 1 minute.
(§13) S4.4. Final concentrations of JAK1, JAK2, JAK3 and Tyk2 kinases in the reaction system were 20 nM, 1 nM, 1 nM and 1 nM respectively.
(§14) S4.5. Incubation at room temperature, where kinases had time differences, and different batches of kinases had time differences.
(§15) S4.6. When 20%-30% of the reaction completed, 15 μL of stop buffer was added to stop the reaction, and centrifuged at 1000 rpm for 2 minutes.
(§16) S4.7. The microplates were placed on EZ Reader for reading.
(§17) S4.8. Readings on EZ Reader were calculated by using a peak height, where product conversion ratio (%)=product/(product+substrate)*100.
(§18) 5. Data Processing: IC50 calculation
(§19) A graphing software Xlfit was used to form a concentration curve of the test compound, and an IC50 value was calculated.
(§20) “A” means “≥10 μM”; “B” means “≥1 μM and <10 μM”; “C” means “≥0.1 μM and <1 μM”; and “D” means “<0.1 μM”.

The target in a further experiment is T1, JAK3 (Homo sapiens, UniProt P52333).
T1 sequence (P52333 1-1124): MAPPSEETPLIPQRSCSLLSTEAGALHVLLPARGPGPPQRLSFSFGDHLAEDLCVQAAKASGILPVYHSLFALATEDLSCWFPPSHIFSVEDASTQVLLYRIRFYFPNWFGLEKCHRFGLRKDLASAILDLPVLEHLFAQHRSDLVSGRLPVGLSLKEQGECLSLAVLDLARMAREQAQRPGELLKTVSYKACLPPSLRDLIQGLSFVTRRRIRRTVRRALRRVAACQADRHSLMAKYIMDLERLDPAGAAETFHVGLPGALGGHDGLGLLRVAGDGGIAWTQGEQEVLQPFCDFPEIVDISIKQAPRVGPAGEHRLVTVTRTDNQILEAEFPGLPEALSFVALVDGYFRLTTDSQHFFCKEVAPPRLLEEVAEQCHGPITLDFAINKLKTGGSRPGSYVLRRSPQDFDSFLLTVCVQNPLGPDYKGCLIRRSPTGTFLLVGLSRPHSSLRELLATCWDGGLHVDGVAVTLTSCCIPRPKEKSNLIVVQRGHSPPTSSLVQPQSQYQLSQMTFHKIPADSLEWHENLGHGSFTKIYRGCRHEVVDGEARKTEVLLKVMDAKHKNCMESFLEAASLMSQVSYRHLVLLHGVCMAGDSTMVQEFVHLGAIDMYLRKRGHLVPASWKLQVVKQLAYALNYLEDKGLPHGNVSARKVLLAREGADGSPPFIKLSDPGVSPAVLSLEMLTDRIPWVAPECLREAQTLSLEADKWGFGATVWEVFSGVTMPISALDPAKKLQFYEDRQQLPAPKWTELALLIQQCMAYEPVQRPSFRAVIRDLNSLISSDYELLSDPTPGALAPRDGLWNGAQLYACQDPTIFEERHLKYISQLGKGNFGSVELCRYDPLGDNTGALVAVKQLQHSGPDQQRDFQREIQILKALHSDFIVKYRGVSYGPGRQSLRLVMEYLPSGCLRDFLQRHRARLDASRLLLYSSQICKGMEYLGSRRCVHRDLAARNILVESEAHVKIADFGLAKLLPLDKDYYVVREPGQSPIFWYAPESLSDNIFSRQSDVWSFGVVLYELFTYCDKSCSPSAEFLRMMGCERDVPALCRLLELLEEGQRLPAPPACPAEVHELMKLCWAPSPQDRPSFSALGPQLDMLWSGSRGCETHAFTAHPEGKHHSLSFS
The experiment can be described thus: JAK kinase inhibition assay (EZ Reader, peptide substrate phosphorylation) - JAK3. The settings on record: JAK3 kinase 1 nM; 8 concentration points, max 10 μM.
Source text: as §1, §2, §3, §4, §5, §6, §7
The compound was dissolved in dimethyl sulfoxide and diluted to 10 mM concentration, a certain volume of solution was taken and diluted to 0.6 mM concentration, 10 μL of the 0.6 mM dilution was added to a 384-well microplate, and then was diluted 3-fold with a total of 8 concentration points. […]
Positive control (HPE1): Ref2, final concentration: 10 μM
as §8, §9, §10, §11, §12, §13, §14, §15, §16, §17, §18, §19, §20

For another experiment, the target named is Tyk2 (Homo sapiens, UniProt P29597). The experiment can be described thus: JAK kinase inhibition assay (EZ Reader, peptide substrate phosphorylation) - Tyk2. The note with it: Tyk2 kinase 1 nM; 8 concentration points, max 10 μM. The method in brief: (§21)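 Microfluidic mobility-shift detection of fluorescent peptide substrate phosphorylation, with JAK1 at 20 nM and JAK2, JAK3 and Tyk2 each at 1 nM final, in 20 mM HEPES pH 7.4, 10 mM MgCl2, 1 mM DTT. Reactions run at room temperature to 20–30% conversion, then EDTA-stopped. Compounds tested at 8 three-fold dilutions from 10 μM top final; IC50 from conversion curves.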

A further experiment addresses JAK1 (Homo sapiens, UniProt P23458). Briefly: JAK kinase inhibition assay (EZ Reader, peptide substrate phosphorylation) - JAK1. The note with it: JAK1 kinase 20 nM; 8 concentration points, max 10 μM. The method in brief:
as §21

Structures are written as SMILES.

Chain of JAK1 (P23458 whole entry): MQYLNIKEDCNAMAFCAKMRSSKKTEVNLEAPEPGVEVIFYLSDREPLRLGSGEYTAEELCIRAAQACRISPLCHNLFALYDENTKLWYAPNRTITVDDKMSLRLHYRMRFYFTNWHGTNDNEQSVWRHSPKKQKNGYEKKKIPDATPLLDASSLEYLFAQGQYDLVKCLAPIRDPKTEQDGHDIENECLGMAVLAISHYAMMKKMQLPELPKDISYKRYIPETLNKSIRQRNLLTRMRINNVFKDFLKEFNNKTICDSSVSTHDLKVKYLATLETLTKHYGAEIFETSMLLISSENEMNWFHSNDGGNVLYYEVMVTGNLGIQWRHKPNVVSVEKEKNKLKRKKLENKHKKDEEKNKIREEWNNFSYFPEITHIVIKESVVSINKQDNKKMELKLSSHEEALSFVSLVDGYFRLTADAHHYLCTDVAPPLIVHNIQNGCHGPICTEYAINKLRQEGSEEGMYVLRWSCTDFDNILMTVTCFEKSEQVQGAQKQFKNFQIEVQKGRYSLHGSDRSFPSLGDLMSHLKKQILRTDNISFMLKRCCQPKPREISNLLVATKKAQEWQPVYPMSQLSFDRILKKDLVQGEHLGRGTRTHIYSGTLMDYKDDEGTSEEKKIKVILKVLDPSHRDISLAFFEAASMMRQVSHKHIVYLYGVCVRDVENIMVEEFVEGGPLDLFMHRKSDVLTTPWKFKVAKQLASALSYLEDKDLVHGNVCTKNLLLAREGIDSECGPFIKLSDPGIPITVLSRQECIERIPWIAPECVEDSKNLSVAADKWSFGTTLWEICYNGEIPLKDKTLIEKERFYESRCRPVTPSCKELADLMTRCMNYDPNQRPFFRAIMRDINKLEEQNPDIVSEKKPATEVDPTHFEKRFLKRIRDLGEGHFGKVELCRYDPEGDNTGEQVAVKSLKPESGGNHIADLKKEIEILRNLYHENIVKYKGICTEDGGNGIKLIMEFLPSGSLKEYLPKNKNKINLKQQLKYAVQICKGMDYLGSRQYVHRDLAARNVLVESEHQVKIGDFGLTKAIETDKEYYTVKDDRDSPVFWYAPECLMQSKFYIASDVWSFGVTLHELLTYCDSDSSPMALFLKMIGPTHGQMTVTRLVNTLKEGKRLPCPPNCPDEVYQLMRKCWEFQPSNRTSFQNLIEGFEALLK
Chain of JAK2 (O60674 whole entry): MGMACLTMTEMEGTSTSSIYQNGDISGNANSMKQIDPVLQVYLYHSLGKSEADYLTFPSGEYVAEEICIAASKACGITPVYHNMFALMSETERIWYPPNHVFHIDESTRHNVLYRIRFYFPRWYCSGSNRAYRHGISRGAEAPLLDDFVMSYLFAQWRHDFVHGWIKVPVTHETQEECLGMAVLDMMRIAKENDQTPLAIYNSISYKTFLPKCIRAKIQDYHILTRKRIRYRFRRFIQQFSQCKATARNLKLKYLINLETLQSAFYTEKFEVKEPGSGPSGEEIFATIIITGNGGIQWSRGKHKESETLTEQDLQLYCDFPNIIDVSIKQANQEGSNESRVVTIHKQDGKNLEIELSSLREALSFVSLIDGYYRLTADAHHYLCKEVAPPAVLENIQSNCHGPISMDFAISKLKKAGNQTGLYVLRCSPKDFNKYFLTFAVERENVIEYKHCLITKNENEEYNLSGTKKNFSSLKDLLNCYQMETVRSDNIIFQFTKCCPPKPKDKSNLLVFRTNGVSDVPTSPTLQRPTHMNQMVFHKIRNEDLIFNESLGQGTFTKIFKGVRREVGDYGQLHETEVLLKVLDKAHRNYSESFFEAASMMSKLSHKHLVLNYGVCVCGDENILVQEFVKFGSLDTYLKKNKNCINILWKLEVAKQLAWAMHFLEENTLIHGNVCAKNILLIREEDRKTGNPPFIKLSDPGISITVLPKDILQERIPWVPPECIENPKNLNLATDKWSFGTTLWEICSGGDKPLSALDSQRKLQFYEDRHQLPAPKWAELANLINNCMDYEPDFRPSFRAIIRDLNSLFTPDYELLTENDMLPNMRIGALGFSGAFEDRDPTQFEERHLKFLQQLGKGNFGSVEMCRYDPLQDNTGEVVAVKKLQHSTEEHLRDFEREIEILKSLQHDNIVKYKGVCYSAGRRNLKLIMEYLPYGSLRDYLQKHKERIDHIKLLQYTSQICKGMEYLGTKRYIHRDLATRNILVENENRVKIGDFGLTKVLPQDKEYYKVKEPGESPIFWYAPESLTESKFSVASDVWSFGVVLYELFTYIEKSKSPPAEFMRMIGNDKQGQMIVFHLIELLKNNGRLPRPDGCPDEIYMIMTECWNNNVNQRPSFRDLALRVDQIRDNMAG
Chain of Tyk2 (P29597 whole entry): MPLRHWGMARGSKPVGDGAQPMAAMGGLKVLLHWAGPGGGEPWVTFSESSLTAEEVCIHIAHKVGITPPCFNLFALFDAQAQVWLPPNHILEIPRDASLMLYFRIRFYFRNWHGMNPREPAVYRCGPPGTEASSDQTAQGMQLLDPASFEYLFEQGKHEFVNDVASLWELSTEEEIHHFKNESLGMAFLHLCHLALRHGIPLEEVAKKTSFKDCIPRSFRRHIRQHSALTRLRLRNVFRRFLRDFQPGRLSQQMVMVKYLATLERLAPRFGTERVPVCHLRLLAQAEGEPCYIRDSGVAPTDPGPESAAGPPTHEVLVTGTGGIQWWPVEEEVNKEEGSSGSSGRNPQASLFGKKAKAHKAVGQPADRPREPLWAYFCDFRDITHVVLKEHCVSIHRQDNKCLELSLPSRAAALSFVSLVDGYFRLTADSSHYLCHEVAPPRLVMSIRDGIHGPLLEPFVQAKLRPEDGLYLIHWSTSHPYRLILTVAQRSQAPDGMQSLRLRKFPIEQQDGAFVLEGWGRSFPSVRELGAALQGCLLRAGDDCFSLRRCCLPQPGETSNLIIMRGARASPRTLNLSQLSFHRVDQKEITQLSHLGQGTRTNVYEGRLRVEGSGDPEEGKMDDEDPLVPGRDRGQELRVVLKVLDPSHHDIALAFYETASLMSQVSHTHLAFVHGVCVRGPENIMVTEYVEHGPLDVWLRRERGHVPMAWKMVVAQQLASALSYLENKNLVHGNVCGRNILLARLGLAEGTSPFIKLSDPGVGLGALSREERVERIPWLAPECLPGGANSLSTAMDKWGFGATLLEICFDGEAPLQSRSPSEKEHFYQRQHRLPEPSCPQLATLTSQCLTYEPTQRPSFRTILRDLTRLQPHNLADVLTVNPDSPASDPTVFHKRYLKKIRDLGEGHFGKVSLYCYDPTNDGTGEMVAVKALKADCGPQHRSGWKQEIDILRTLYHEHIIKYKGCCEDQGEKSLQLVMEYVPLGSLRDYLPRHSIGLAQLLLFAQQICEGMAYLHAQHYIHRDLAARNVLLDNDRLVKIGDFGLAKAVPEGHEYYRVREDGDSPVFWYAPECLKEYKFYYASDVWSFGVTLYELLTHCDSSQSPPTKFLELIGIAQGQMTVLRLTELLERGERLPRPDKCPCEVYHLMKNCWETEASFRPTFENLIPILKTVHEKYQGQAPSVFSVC

In general, IC50 refers to the concentration needed to halve the response being measured. Regarding `Cn1cc(Nc2nccc(-c3ccc(C(=O)NCC(F)(F)F)nc3)n2)cn1` [TDM-180756, 5-(2-((1-methyl-1H-pyrazole-4-yl)amino)pyrimidin-4-yl)-N-(2,2,2-trifluoroethyl)pyridinecarboxamide], the concentration for half-maximal inhibition (IC50) against JAK2 was in the range of 0.1 to 1 µM; at JAK3 it was 1 to 10 µM; at Tyk2, 0.1 to 1 µM; against JAK1 it was 0.1 to 1 µM.
`Cn1cc(Nc2nccc(-c3ccc(NC(=O)C4CC4(F)F)cc3)n2)cn1` (stereo not shown) [TDM-180757, 2,2-difluoro-N-(4-(2-((1-methyl-1H-pyrazol-4-yl)amino)pyrimidin-4-yl)phenyl)cyclopropane-1-carboxamide]: the IC50 on JAK2 is under 0.1 µM; on JAK3 it was 0.1 to 1 µM; on Tyk2 it was under 0.1 µM; on JAK1, under 0.1 µM.
Take `Cn1cc(Nc2nccc(-c3ccc(C(=O)NC4CC4(F)F)cc3)n2)cn1` (stereo not shown) [TDM-180758, N-(2,2-difluorocyclopropyl)-4-(2-((1-methyl-1H-pyrazol-4-yl)amino)pyrimidin-4-yl)benzamide]: the IC50 is 1 to 10 µM against JAK2, 1 to 10 µM against JAK3, 1 to 10 µM on Tyk2 and 0.1 to 1 µM against JAK1.
As for `COCC(=O)Nc1ccc(-c2ccnc(Nc3cnn(C)c3)n2)cc1` [TDM-180759, 2-methoxy-N-(4-(2-((1-methyl-1H-pyrazol-4-yl)amino)pyrimidin-4-yl)phenyl)acetamide], the IC50 was 1 to 10 µM at JAK2, at least 10 µM on JAK3, 1 to 10 µM against Tyk2 and 1 to 10 µM against JAK1.
As for `Cn1cc(Nc2nccc(-c3ccc(CNCC(F)(F)F)cc3)n2)cn1` [TDM-180760, N-(1-methyl-1H-pyrazol-4-yl)-4-(4-(((2,2,2-trifluoroethyl)amino)methyl)phenyl)pyrimidin-2-amine], the IC50 is 1 to 10 µM against JAK2, at least 10 µM at JAK3, 0.1 to 1 µM on Tyk2 and 0.1 to 1 µM on JAK1.
On to `Cn1cc(Nc2nccc(-c3ccc(CNCC#N)cc3)n2)cn1` [TDM-180761, 2-((4-(2-((1-methyl-1H-pyrazol-4-yl)amino)pyrimidin-4-yl)benzyl)amino)acetonitrile], for which the half-inhibitory concentration (IC50) is 1 to 10 µM against JAK2, at least 10 µM against JAK3, 0.1 to 1 µM against Tyk2 and 0.1 to 1 µM against JAK1.
As to `Cn1cc(Nc2nccc(-c3ccc(C(=O)NCC#N)nc3)n2)cn1` [TDM-180762, N-(cyanomethyl)-5-(2-((1-methyl-1H-pyrazol-4-yl)amino)pyrimidin-4-yl)pyridinecarboxamide], the 50% inhibitory concentration (IC50) on JAK2 fell in the range of 0.1 to 1 µM; against JAK3, 1 to 10 µM; against Tyk2, 0.1 to 1 µM; against JAK1 it was 0.1 to 1 µM.
Turning to `Cn1cc(Nc2nccc(-c3ccc(-n4nccc4C4CC4)cc3)n2)cn1` [TDM-180763, 4-(4-(5-cyclopropyl-1H-pyrazol-1-yl)phenyl)-N-(1-methyl-1H-pyrazol-4-yl)pyrimidin-2-amine], the 50% inhibitory concentration (IC50) at JAK2 is 1 to 10 µM; against JAK3, at least 10 µM; against Tyk2 it was 1 to 10 µM; at JAK1, 10 µM.
With `Cn1cc(Nc2nccc(-c3ccc(C(=O)N4CCS(=O)(=O)CC4)nc3)n2)cn1` [TDM-180764, (1,1-sulfur dioxide) (5-(2-((1-methyl-1H-pyrazol-4-yl)amino)pyrimidin-4-yl)pyridin-2-yl)methanone], the 50% inhibitory concentration (IC50) against JAK2 was 1 to 10 µM; on JAK3 it was at least 10 µM; against Tyk2, 1 to 10 µM; at JAK1 it was 1 to 10 µM.
`Cn1cc(Nc2nccc(-c3ccc(NS(=O)(=O)C4CC4)cc3)n2)cn1` [TDM-180767, N-(4-(2-((1-methyl-1H-pyrazol-4-yl)amino)pyrimidin-4-yl)phenyl)cyclopropanesulfo]: the IC50 lay in the range of 0.1 to 1 µM on JAK2, 1 to 10 µM on JAK3, 0.1 to 1 µM against Tyk2 and 0.1 to 1 µM on JAK1.
With `CCS(=O)(=O)Nc1ccc(-c2ccnc(Nc3cnn(C)c3)n2)cc1` [TDM-180768, N-(4-(2-((1-methyl-1H-pyrazol-4-yl)amino)pyrimidin-4-yl)phenyl)ethanesulfonamide], the 50% inhibitory concentration (IC50) against JAK2 lay within 0.1 to 1 µM; on JAK3, 1 to 10 µM; against Tyk2, 0.1 to 1 µM; against JAK1, 0.1 to 1 µM.
`Cc1cc(-c2ccnc(Nc3cnn(C)c3)n2)ccc1C(=O)NCC(F)(F)F` [TDM-180780, 2-methyl-4-(2-((1-methyl-1H-pyrazol-4-yl)amino)pyrimidin-4-yl)-N-(2,2,2-trifluoroethyl)benzamide]: the IC50 was 1 to 10 µM against JAK2, over 10 µM at JAK3, 0.1 to 1 µM against Tyk2 and 0.1 to 1 µM on JAK1.
With `Cn1cc(Nc2nccc(-c3ccc(NC(=O)C4(C)CC4)cc3)n2)cn1` [TDM-180802, 1-methyl-N-(4-(2-((1-methyl-1H-pyrazol-4-yl)amino)pyrimidin-4-yl)phenyl)cyclopropane-1-carboxamide], the IC50 was 0.1 to 1 µM against JAK2, at least 10 µM on JAK3, 0.1 to 1 µM on Tyk2 and 0.1 to 1 µM against JAK1.

Source of the values: patent US20240174648A1, “Small Molecule Compound” (Technoderma Medicines Pte Ltd, priority 2019, published 2024).
